# “Also recorded” adds a separate entry of the source.
# Legend:
# [1] = tested on: NMRI mice; test: Acute self-administration: food reinforcement; format: in vivo; conditions: L-152,804 10 mg/kg p.o. two hours before; fasted overnight; P=0.573 vs. vehicle pre-treated ensure; FIG. 3
# Description: The self-administration apparatus used was described above. The end of the PVC tubing, mentioned above, was secured on the outside of the self-administration box at the top of the nose-poke hole, thereby enabling the mice to reach the end of the PVC tube to acquire the content used as reinforcer (ensure protein drink, Abbott Laboratories, USA). The animals fasted overnight, with water still available.
# Male NMRI mice received p.o. administration of L-152,804 (10 mg/kg) or corresponding vehicle. Two hours later, the animals were subjected to the self-administration procedure described above with access to PVC tubing containing ensure (nvehicle=11, nL-152,804=13) or without any drink content (=control, n=16).
# Data were analyzed using SPSS (SPSS Inc, USA). In the self-administration experiments, two animals from the L-152,804 experiment were excluded. […] In the first and third self-administration experiments, data were analyzed using one-way analysis of variance (ANOVA) followed by post-hoc LSD t-test. […] Subsequently, after significant treatment effect of cocaine, data were analyzed using one-way ANOVA followed by post-hoc LSD t-tests. […]
# [2] = tested on: NMRI mice; test: Acute self-administration: cocaine reinforcement; format: in vivo; conditions: for nose-poking when saline was the i.v.-reinforcer (per se effect): L-152,804 10 mg/kg p.o. vs vehicle p.o.
# [3] = tested on: C57Bl/6 mice; test: Cocaine-induced conditioned place preference (CPP); format: in vivo
# From the text: The CPP apparatus consisted of eight parallel set-ups, each consisting of two separate compartments measuring 19×19×19 cm. The walls extended upwards with clear Plexiglas plates to a total height of 43 cm, having the function of preventing the mice from jumping out, and at the same time allowing light to enter. The two compartments differed in visual as well as tactile cues. In one compartment, the walls and floor were painted white, and the floor was smooth, whereas in the other compartment, the walls were black, and the floor provided texture by insertion of a grey Lego plate. During habituation, post-conditioning test, extinction, and reinstatement, the mice were free to move between the two compartments through a square hole (3.5×3.5 cm). During conditioning, this opening was closed by insertion of a wooden plate. The movements of the animals were measured with the video-tracking program EthoVision (Noldus, Netherlands).
# The CPP procedure consisted of the following consecutive phases: Habituation (2 days), conditioning (8 days), post-conditioning test (1 day), extinction (3 days), reinstatement test (1 day). Habituation (days 1-2): Each day the mice were placed into the white compartment of the CPP boxes with the door open and allowed to explore the compartments for 20 minutes to become habituated to the CPP apparatus. On the second day (i.e., the pre-conditioning test), the time spent in each of the two compartments (black or white) was recorded. This determined the preferred compartment of each mouse. No injections were given during these sessions.
# Conditioning (days 3-10): Before eight daily 30 minutes conditioning sessions the animals received i.p. injections of either drug or isotonic saline, and the door between the two compartments was closed. Drug groups received drug injections on drug-days and were placed 2-5 min. later in their non-preferred compartment. On non drug-days, these animals received vehicle injections and were subsequently placed in their preferred compartment. All control animals received injections with vehicle each day and were placed in alternating compartments (black/white) on alternating days. […]
# Post-conditioning test (day 11): The test was conducted on the day after the last conditioning session. Mice were allowed free access to both compartments for 20 minutes during which the amount of time spent in each compartment was recorded as described above for the pre-conditioning test. […]
# Extinction and reinstatement: During an extinction period of three days the animals were exposed to the apparatus as during the post-conditioning test for 20 minutes each day with open doors and without prior injection. […] Subsequently, the time spent in the previously drug-paired (non-preferred) compartment was recorded for 20 min. […]
# [4] = tested on: rats; conditions: rats treated with L-152,804; cited from earlier work
# [5] = 2 hrs after oral administration, 10 mg/kg; cited from earlier work
# [6] = tested on: NMRI mice; test: Cocaine-induced hyperactivity; format: in vivo
# From the text: The apparatus for measuring locomotor hyperactivity consisted of 16 activity Plexiglas boxes (37×21×17 cm). Eight dual photocells placed throughout the length of each box, detected movement of the animals. A plate was placed on top of the box in order to keep the mice from jumping out during the sessions. Sawdust was placed in a thin layer on the floor of the box. All activity boxes were connected to an interface (SG 502, Med. Associates Inc., East Fairfield, Vt., USA), measuring each beam-break. A computer and activity software (Ellegaard Systems, DK) were used to record the results from each activity box.
# In all activity experiments an i.p. injection of either vehicle or drug was administered 3-7 minutes before testing. The animal was then placed in an activity box and the activity was measured for 30 minutes. […]
# Conditioned place preference data were analysed using repeated measure one-way ANOVA between days within each group on all four groups of both experiments. […] Post-conditioning test and reinstatement presented as percent of its own saline group were analysed with a one-way ANOVA followed by post-hoc LSD t-tests. Total crossings were analysed with a one-way ANOVA followed by post-hoc LSD t-tests. Data presented as 5 minutes intervals was analysed using repeated measures ANOVA with treatment as between subjects factor followed by LSD post-hoc t-test. […]
# [7] = target: T1, Y5 receptor (Mus musculus, UniProt O70342); conditions: cited from earlier work
# T1 construct: close to 80% Y5 receptor occupancy in the mouse brain has also been observed between one and four hours after oral administration; host or cells: mouse brain (in vivo, after oral dosing)
# T1 sequence (O70342 1-466): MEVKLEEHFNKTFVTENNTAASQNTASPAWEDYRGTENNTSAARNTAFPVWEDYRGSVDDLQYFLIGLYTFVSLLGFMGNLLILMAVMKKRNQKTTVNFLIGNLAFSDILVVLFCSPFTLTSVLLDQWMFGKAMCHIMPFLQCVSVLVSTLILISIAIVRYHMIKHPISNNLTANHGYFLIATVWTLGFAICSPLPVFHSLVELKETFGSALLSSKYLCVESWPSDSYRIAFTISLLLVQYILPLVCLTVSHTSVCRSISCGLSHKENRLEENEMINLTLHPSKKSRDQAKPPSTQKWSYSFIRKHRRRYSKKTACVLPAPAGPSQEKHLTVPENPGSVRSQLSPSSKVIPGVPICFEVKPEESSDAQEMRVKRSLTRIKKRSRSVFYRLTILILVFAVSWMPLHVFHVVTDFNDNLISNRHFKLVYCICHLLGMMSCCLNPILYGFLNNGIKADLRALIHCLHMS
# [8] = tested on: Y5-KO and WT mice; test: Acute self-administration of cocaine in Y5-KO and WT mice; format: in vivo; conditions: inverted U-shaped curve, FIG. 4
compound,measurement,setting,value
"CC1(C)CC(=O)C(C2C3=C(CC(C)(C)CC3=O)Oc3ccccc32)C(=O)C1 [L-152,804, 5,5-Dimethyl-2-(2,3,4,9-tetrahydro-3,3-dimethyl-1oxo-1H-xanthen-9-yl)-1,3-cyclohexanedione]",food (ensure protein drink) self-administration,[1],had no effect; also recorded: did not alter
same,nose-poking when saline was the i.v.-reinforcer (per se effect),[2],no effect; also recorded: did not significantly decrease
same,nose-poking when saline was the i.v.-reinforcer (per se effect),"[2]; listed as L-152,802",No per se effect
same,"self-administration of cocaine (nose-poking), significance of decrease","[2]; L-152,804 10 mg/kg p.o., cocaine 0.03 mg/kg/infusion, P=0.004",reaching significance
same,"cocaine self-administration vs. saline i.v. in L-152,804-pretreated mice","[2]; L-152,804 10 mg/kg p.o., cocaine 0.01-1.0 mg/kg/infusion, post-hoc LSD t-tests",no significant doses vs. saline; also recorded: did not self-administer cocaine at a significantly higher rate
same,downward shift of the cocaine dose-response curve (efficacy of cocaine),"[2]; L-152,804 10 mg/kg p.o., vertex of fitted parabola, likelihood ratio test P<0.001",shifted down; also recorded: shifted significantly downward
same,shift of the cocaine dose-response curve to the right or left (potency of cocaine),"[2]; L-152,804 10 mg/kg p.o., vertex of fitted parabola, likelihood ratio test P=0.25",neither shifted significantly to the right nor to the left; also recorded: showed a tendency toward a rightward shift
same,"self-administration of cocaine (nose-poking), significance of decrease","[2]; L-152,804 30 mg/kg p.o., cocaine 0.03 mg/kg/infusion, P=0.002",reaching significance
same,self-administration of cocaine (nose-poking),"[2]; cocaine 0.03 mg/kg/infusion i.v., L-152,804 3, 10 or 30 mg/kg p.o. two hours before, FIG. 1",significantly and dose-dependently decreased
same,nose-poking frequency of i.v.-administered cocaine at the other self-administered cocaine dose,"[2]; second experiment, L-152,804 10 mg/kg p.o., cocaine 0.01 mg/kg/infusion as printed",showed a similar trend
same,nose-poking frequency of i.v.-administered cocaine at the peak dose of cocaine,"[2]; second experiment, L-152,804 10 mg/kg p.o., cocaine 0.03 mg/kg/infusion, P=0.006, FIG. 2",significantly reduced
same,induction of cocaine place preference (post-conditioning vs. pre-conditioning test),"[3]; L-152,804 3, 10, 30 mg/kg p.o. two hours prior to cocaine 10 mg/kg i.p. conditioning, FIG. 5A",did not attenuate; also recorded: caused significant place preference similar to that observed without the Y5-antagonist
same,reinstatement of cocaine-induced place preference vs. own pre-conditioning test,"[3]; L-152,804 3, 10, 30 mg/kg p.o., cocaine priming 5 mg/kg, FIG. 5A",absent; also recorded: prevented significant reinstatement
same,reinstatement as percent of the vehicle p.o./saline i.p. group,"[3]; L-152,804 3, 10, 30 mg/kg p.o., cocaine priming 5 mg/kg, FIG. 5B","dose-dependently attenuated; also recorded: only the highest dose of L-152,804 (30 mg/kg) blocked reinstatement"
same,extinction of cocaine place preference,"[3]; L-152,804 3, 10, 30 mg/kg p.o., three extinction days, vehicle/cocaine group reached full extinction on day 3",significantly faster; also recorded: full extinction already on the first extinction day
same,distance travelled,[4],no change in distance travelled
same,"amount of L-152,804 in the rat brain",[5],significant amount
same,"cocaine-induced hyperactivity (locomotor activity, beam crossings)","[6]; L-152,804 10 mg/kg p.o. two hours prior to cocaine 10 mg/kg, 30 min observation and 5-min intervals, FIG. 7",appeared to be attenuated; also recorded: prevented a significant cocaine-induced increase in locomotor activity
same,locomotor activity in saline i.p.-treated animals,"[6]; L-152,804 10 mg/kg p.o. vs vehicle",No effect
same,Y5 receptor occupancy in mouse brain,"[7]; 2 h after oral administration of L-152,804",80%
same,Y5 receptor occupancy in the mouse brain,"[7]; between one and four hours after oral administration of L-152,804",~80%
COC(=O)[C@H]1[C@@H](OC(=O)c2ccccc2)C[C@@H]2CC[C@H]1N2C [cocaine],cocaine dose at which self-administration reaches maximum,[8],0.03 mg/kg/infusion
same,cocaine dose at which self-administration reaches maximum,"[2]; vehicle p.o. pre-treated NMRI mice, inverted U-shaped curve",0.03 mg/kg/infusion
